Assay results published in US20180256560A1 (priority 2015, published 2018).
Where “and” joins values, the source holds several entries; their conditions need not be identical. Equal values may be shown once. Read-outs that look alike come from different tables or passages of the source.

Legend:
[1] = 20 mg/ml nicotine in the formulation; FIGS. 4.4-4.6
Protocol: Test solutions were prepared from ethanol, de-ionized water, a 20% stock solution of glycerol in de-ionized water, a 5 M NaCl solution and nicotine solutions of 40 mg/ml in either ethanol or de-ionized water. Solutions were analysed for droplet size distributions generated by an eFlow© rapid nebulizer device (PARI GmbH) which was placed at 90° to, and 15 cm from, the laser light path of a Malvern Spraytec particle sizer. A Malvern Spraytec Real Time Droplet Sizer and an Alberta Idealized Throat coupled to an Andersen Cascade Impactor (AIT/ACI) were also used to determine droplet size.
The surface to volume ratio of the droplets was calculated using the following formulae:

[2] = not given; remark: listed apart in the source
[3] = not given; remark: listed apart in the source
[4] = cited from earlier work

Which results are given for `CN1CCC[C@H]1c1cccnc1` [nicotine, (S)-3-(1-Methyl-2-pyrrolidinyl)pyridine]?
effect of adding nicotine on droplet size [1]: no major shift in droplet size; enhancement of gaseous release of nicotine from the solution by salt (1M NaCl): two-fold; reduction of nicotine gas release by ethanol (dynamic) (10% ethanol, FIG. 3.4): 90%; effect of pH on nicotine gas release (dynamic) (decreasing pH from 8 to 3, FIG. 3.2): dramatically decreases; effect of NaCl on nicotine release in gas form (dynamic) (increasing NaCl from 0 to 1M, FIG. 3.3): dramatically increases; reduction of nicotine in gas form at equilibrium by ethanol ([2]; 20 mg/ml nicotine, 1% ethanol, FIG. 2.3): 90%; effect of pH on amount of nicotine in gas form at equilibrium ([2]; decreasing pH from 10 to 3, FIG. 2.2): dramatically decreases; effect of metal salt on amount of gaseous nicotine at equilibrium ([2]; higher salt concentrations): larger amounts of gaseous nicotine; nicotine molecules uncharged ([3]; pH 7): approximately 10%; nicotine molecules uncharged ([3]; pH 10): > 99% and ~100%; nicotine in 5 litres of arterial blood ([4]; 25% of the average 1 mg of nicotine delivered by a cigarette): 30 to 60 ng/mL; time to peak nicotine concentration in arterial blood ([4]; smokers, typical): 3 to 5 min
